Measured values as given in patent US20230115335A1, “PYRAZOLE DERIVATIVES WITH ANTICANCER ACTIVITY” (BOARD OF REGENTS, THE UNIVERSITY OF TEXAS SYSTEM, priority 2021, published 2023).
Where two headings read alike, the source gives them in different places.

Tests used:
[1] = test system: CEM cell line; assay: DNS cytotoxicity assay, CEM; assay type: cell-based, human; conditions: read-out: CEM CC50
Description: […] […] After treatment, images were acquired and analyzed to determine percentages of live/dead cells and their cytotoxicity. […] The Hs-27 non-cancerous human foreskin fibroblast cell line was used for comparison purposes.

[2] = DNS cytotoxicity assay, MCF10A; assay type: cell-based; conditions: human, MCF10A non-cancerous cells, 72 hr incubations, read-out: Cell Line CC50 MCF10A*
Experimental: (§1) Since the non-adherent (free floating) lymphoma/leukemia cell lines divide faster than the adherent cell lines, they were incubated for a shorter period (48 h) of time with the compound.

[3] = test system: MDA-MB231; assay: DNS cytotoxicity assay, MDA-MB-231; assay type: cell-based; conditions: Homo sapiens, 72 hr incubations, read-out: Cell Line CC50 MDA-MD-231*
Experimental: as §1
(§2) Lymphoma/leukemia cell lines, which grow in suspension, were incubated for 48 h with the compounds. […] After treatment, images were acquired and analyzed to determine percentages of live/dead cells and their cytotoxicity. […] The Hs-27 non-cancerous human foreskin fibroblast cell line was used for comparison purposes.

[4] = DNS cytotoxicity assay, HS-27 non-cancerous fibroblast; assay type: cell-based; conditions: human, Hs-27 non-cancerous foreskin fibroblast cells; 72 hr incubations; non-cancerous; read-out: Cell Line CC50 HS-27*
Experimental: as §1, §2

[5] = Homo sapiens, CCRF-CEM, Initial Screen, DNS assay

SMILES | CC50 at 72 h [2] | CC50 [3] | CC50 at 72 h [4] | CC50 [1, 5] | other results
O=C(N/N=C1\C(=O)N(CN2CCOCC2)c2ccccc21)c1n[nH]c2c1CCC2 [SSK-5] |  |  |  |  | CC50 ([1]; Homo sapiens, CCRF-CEM): > 10 µM
O=C(N/N=C1\C(=O)N(CN2CCCCC2)c2ccccc21)c1n[nH]c2c1CCC2 [SSK-6] |  |  |  |  | CC50 ([1]; Homo sapiens, CCRF-CEM): > 10 µM
O=C(N/N=C/c1cc(Br)cc(Br)c1O)c1n[nH]c2c1CCC2 [P3C.6] | 5.85 µM | 2.53 µM | 9.94 µM |  | 
Cc1ccc(-c2nn(-c3ccccc3)cc2/C=N/NC(=O)c2n[nH]c3c2CCC3)cc1 [SSK-8] |  |  |  | 3.6 ± 0.16 µM | 
O=C(N/N=C/c1ccccc1Br)c1n[nH]c2c1CCC2 [P3C.5] | 6.36 µM | 9.88 µM | > 10 µM |  | 
Cc1ccc2c(c1)/C(=N/NC(=O)c1n[nH]c3c1CCC3)C(=O)N2 [SSK-4] |  |  |  |  | CC50 ([1]; Initial Screen, DNS assay): 5.02 ± 0.78 µM
O=C1Nc2ccc(F)cc2/C1=N/NC(=O)c1n[nH]c2c1CCC2 [SSK-2] |  |  |  | > 10 µM | 
O=C(N/N=C/c1cn(-c2ccccc2)nc1-c1ccccc1)c1n[nH]c2c1CCC2 [SSK-7] |  |  |  | 8.15 ± 0.23 µM | 
Cc1ccc(Cn2cc(COc3ccc(/C=N/NC(=O)c4n[nH]c5c4CCC5)cc3)nn2)cc1 [SSK-13] |  |  |  | > 10 µM | 
CCN(CC)c1ccc(/C=N/NC(=O)c2n[nH]c3c2CCC3)cc1 [P3C.4] | 2.46 µM | 2.91 µM | > 10 µM |  | 
O=C(N/N=C/c1cccc2ccccc12)c1n[nH]c2c1CCC2 [P3C.2] | 0.53 µM | 1.83 µM | 4.1 µM |  | 
